Converted amounts (≈) assume the structure as drawn.
Experiments:
[1] = active hydride analysis of borane adducts ([BH3], by hydrolysis and hydrogen evolved); type: physicochemical; details: estimated by hydrolysis in water:glycerol:THF 1:1:1 and measuring hydrogen evolved
Method: Alternatively, borate esters were prepared from the reaction of borane-tetrahydrofuran with hydroxysulfide in molar ratio 1:3. Quantitative borate ester formation was confirmed by measuring the hydrogen evolved. Warming of the reaction mixture (60°-65° C.) is necessary to drive the reaction to completion. Generally speaking, the novel compounds of this invention are conveniently prepared in a straight-forward procedure by passing diborane into a neat borate ester at 0° C. in a bubbler provided with a stirrer. Excess diborane not absorbed by the borate ester is absorbed in a down-stream bubbler containing tetrahydrofuran over mercury and cooled in ice water. A mercury bubbler is connected to the exit. Diborane is passed into the ester until the concentration of excess borane in THF reaches approximately 1M. The borane-borate adduct is stirred overnight at room temperature prior to disconnecting the bubblers and analyzed for active hydride following the procedure described by Brown, H. C., Organic Syntheses via Boranes, J. Wiley: New York, 1975, p. 191, using a 2M hydrochloric acid-glycerol-water(2:1:1) hydrolysis solution.
A 100 ml one-neck, round-bottom flask equipped with a septum inlet, magnetic stirring bar and an adapter with a stopcock was charged with boron trifluoride diglyme (20 mmol). A 2M solution of sodium borohydride in triglyme (7.5 ml, 15 mmol) was added dropwise by means of a hypodermic syringe. Generation of diborane is smooth and the reaction is not exothermic. Generated diborane was passed through a bubbler containing sodium borohydride (0.1 g) in diglyme (5 ml) and a trap cooled to -78° C. was absorbed in neat 2-(tert-butylthio)ethanol (7.94 g, 60 mmol) at room temperature. After the addition was completed, the solution of borate was stirred at 50° C. for 15 min under a slow stream of nitrogen to produce the borate ester tris 2-(tert-butylthio)ethyl borate at room temperature. Escaped diborane was absorbed in the following bubbler containing tetrahydrofuran (10 ml) over mercury and cooled in ice water. A mercury bubbler was connected to the exit. Diborane was passed into the solution until the concentration of borane in the THF reached approximately 1M. The borane adduct, a colorless liquid, was analyzed for active hydride by a standard procedure using a water:glycerol:THF 1:1:1 hydrolyzing mixture. Concentration 6.4M, ^11 B NMR δ -26.03.
^b Estimated by hydrolysis in water: glycerol: THF 1:1:1 and measurin

[2] = in BH3; liquid; prior art; cited from earlier work
[3] = prior art; cited from earlier work
[4] = prior art; cited from earlier work; remark: listed apart in the source
[5] = solubility in water of hydroxysulfides (1 g per ... mL H2O); type: physicochemical; details: for solubility in water 1 g per ... mL H2O / solubility: mL H2O per 1 g hydroxysulfide; for solubility in water 1 g per ... mL H2O (in words) / solubility: water

## [BH3-][S+](CCOB(OCC[S+]([BH3-])C(C)(C)C)OCC[S+]([BH3-])C(C)(C)C)C(C)(C)C (stereo not drawn) [9a, Tris 2-(tert-Butylthio)ethyl!borate borane adduct (1:3)]
[1]
  [BH3]: 6.4 M

## [BH3-][S+](CCOB(OCC[S+]([BH3-])CCC(C)C)OCC[S+]([BH3-])CCC(C)C)CCC(C)C (stereo not drawn) [9b]
[1]
  [BH3]: 5.9 M

## [BH3-][S+](CC)CCOCCOB(OCCOCC[S+]([BH3-])CC)OCCOCC[S+]([BH3-])CC (stereo not drawn) [9c, tris 2-2-(Ethylthio)ethoxy!ethyl!borate borane adduct (1:3)]
[1]
  [BH3]: 5.7 M

## [BH3-][S+](CCOCCOB(OCCOCC[S+]([BH3-])C(C)(C)C)OCCOCC[S+]([BH3-])C(C)(C)C)C(C)(C)C (stereo not drawn) [9d, tris 2-2-(tert-Butylthio)ethoxy!ethyl!borate borane adduct (1:3)]
[1]
  [BH3]: 5.5 M

## [BH3-][S+](CCOCCOB(OCCOCC[S+]([BH3-])CCC(C)C)OCCOCC[S+]([BH3-])CCC(C)C)CCC(C)C (stereo not drawn) [9e, tris 2-2-(Isoamylthio)ethoxy!ethyl borate borane adduct (1:3)]
[1]
  [BH3]: 5.0 M

## [BH3-][S+](CC)CCOCCOCCOB(OCCOCCOCC[S+]([BH3-])CC)OCCOCCOCC[S+]([BH3-])CC (stereo not drawn) [9f, tris 2-2-2-(Ethylthio)ethoxy!ethoxy!ethyl!borate borane adduct (1:3)]
[1]
  [BH3]: 5.2 M

## [BH3-][S+](CCOCCOCCOB(OCCOCCOCC[S+]([BH3-])C(C)(C)C)OCCOCCOCC[S+]([BH3-])C(C)(C)C)C(C)(C)C (stereo not drawn) [9g, tris 2-2-2-(tert-Butylthio)ethoxy!ethoxy!ethyl!borate borane adduct (1:3)]
[1]
  [BH3]: 4.2 M

## [BH3-][S+](CCOCCOCCOB(OCCOCCOCC[S+]([BH3-])CCC(C)C)OCCOCCOCC[S+]([BH3-])CCC(C)C)CCC(C)C (stereo not drawn) [9h, tris 2-2-2-(Isoamylthio)ethoxy!ethoxy!ethyl!borate borane adduct (1:3)]
[1]
  [BH3]: 4.0 M

## [BH3-][S+](CCOC)CCOB(OCC[S+]([BH3-])CCOC)OCC[S+]([BH3-])CCOC (stereo not drawn) [9i, tris 2-(2-Methoxyethylthio)ethyl!borate borane adduct (1:3)]
[1]
  [BH3]: 6.0 M

## [BH3-][S+]1CCOCC1 [Borane-1,4-thioxane]
[2]
  borane concentration: 8 M
[3]
  stability: stable over prolonged periods
[4]
  solubility in water: limited solubility in water

## [BH3-][S+](C)C [Borane-methyl sulfide]
[3]
  stability: much more stable than borane-tetrahydrofuran

## [BH3-][O+]1CCCC1 [Borane-tetrahydrofuran]
[3]
  stability: unstable over a period of time

## CCSCCOCCOCCO [Et--SCH2 CH2 OCH2 CH2 OCH2 CH2 OH, 2-2-2-(ethylthio)ethoxy!ethoxy!ethanol]
[5]
  solubility in water 1 g per ... mL H2O (in words): miscible

## CCSCCOCCO [EtSCH2 CH2 OCH2 CH2 OH, 2-2-(ethylthio)ethoxy!ethanol]
[5]
  solubility in water 1 g per ... mL H2O (in words): miscible

## COCCSCCO [H3 COCH2 CH2 SCH2 CH2 OH, 2-(2-methoxyethylthio)ethanol]
[5]
  solubility in water 1 g per ... mL H2O (in words): miscible

## CSC [dimethyl sulfide]
[4]
  solubility in water: not soluble in water

## CC(C)CCSCCOCCOCCO [i-AmSCH2 CH2 OCH2 CH2 OCH2 CH2 OH, 2-2-2-(isoamylthio)ethoxy!ethoxy!ethanol]
[5]
  solubility in water 1 g per ... mL H2O: 100 mL

## CC(C)CCSCCOCCO [i-AmSCH2 CH2 OCH2 CH2 OH, 2-2-(isoamylthio)ethoxy!ethanol]
[5]
  solubility in water 1 g per ... mL H2O: < 100 mL

## CC(C)CCSCCO [i-AmSCH2 CH2 OH, 2-(isoamylthio)ethanol]
[5]
  solubility in water 1 g per ... mL H2O: < 100 mL

## CC(C)(C)SCCOCCOCCO [t-BuSCH2 CH2 OCH2 CH2 OCH2 CH2 OH, 2-2-2-(tert-butylthio)ethoxy!ethoxy!ethanol]
[5]
  solubility in water 1 g per ... mL H2O (in words): miscible

## CC(C)(C)SCCOCCO [t-BuSCH2 CH2 OCH2 CH2 OH, 2-2-(tert-butylthio)ethoxy!ethanol]
[5]
  solubility: 66.7 mg/mL (≈ 374 mM)

## CC(C)(C)SCCO [t-BuSCH2 CH2 OH, 2-(tert-butylthio)ethanol]
[5]
  solubility: 20 mg/mL (≈ 149 mM)
